Results published in PubChem BioAssay AID1320 (NMMLSC, 2008).
Calls of active or inactive are those of the source. No rule for the calls is given here.

biological target: Bcl-2-related protein A1 (Homo sapiens) (UniProt Q16548); experiment: Bfl-1/Bim complex disruptors – biochemical, multiplexed, bead-based flow cytometry, dose response (AID 1320); conditions: Bim peptide-Bfl-1 binding, fluorescence; as to percent span (inhibition): test concentration not given here
Sequence (Q16548 whole entry, looked up): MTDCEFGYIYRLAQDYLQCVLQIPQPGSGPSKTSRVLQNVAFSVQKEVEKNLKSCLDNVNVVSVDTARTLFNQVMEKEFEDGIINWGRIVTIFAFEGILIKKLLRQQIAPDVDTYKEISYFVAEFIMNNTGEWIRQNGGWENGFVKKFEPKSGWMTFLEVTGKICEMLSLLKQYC

Row | SMILES | EC50
1 | Clc1ccc2c(N/N=C/c3ccccc3Br)ccnc2c1 | inactive
2 | Cc1c(NC2=C(Cl)C(=O)N(c3ccccc3)C2=O)c(=O)n(-c2ccccc2)n1C | inactive

same assay, conditions: Bim peptide-Bfl-1 binding, fluorescence

Row | SMILES | percent span (inhibition)
3 | CC(C)NS(=O)(=O)c1ccc(OCC(=O)Nc2ccc(F)cc2)cc1 | inactive
4 | Cc1cc(N2CCN(C)CC2)nc2ccc(NC(=S)N3CCN(c4cccc(Cl)c4)CC3)cc12 | inactive
5 | Cc1ccccc1-c1nc(-c2ccc(NC(=O)c3ccc4c(c3)OCO4)cc2)no1 | inactive
6 | CCCCC(=O)Nc1ccc(C(=O)N2CCC(C(=O)OCC)CC2)cc1 | inactive
7 | COc1ccc(NC(=O)C2=C(C)NC(=O)NC2c2cccc(OC)c2OC)c(OC)c1 (stereo not drawn) | inactive
8 | Cc1ccc2cc(C)c(Sc3nnnn3-c3ccccc3)nc2c1 | inactive
9 | CCOC(=O)/C(=C\c1ccc(Cl)cc1)c1nc2sc(C)c(C)c2c(=O)[nH]1 | inactive
10 | CCNC(=S)Nc1ccc(OCC)cc1 | inactive
11 | c1ccc(-c2nnc(OCCN3CCOCC3)c3ccccc23)cc1 | inactive
12 | O=C(c1cnccn1)N(Cc1cccs1)C1(C(=O)NC2CCCCC2)CCCCC1 | inactive
13 | COc1ccc(C2C(C#N)=C(C)NC3=C2S(=O)(=O)c2ccccc23)cc1 (stereo not drawn) | inactive
14 | CCCn1c(C)cc(-c2csc(N)n2)c1C | inactive
15 | COc1ccc(N2CCN(CCCNC(=O)CCCn3c(=O)[nH]c4ccsc4c3=O)CC2)cc1 | inactive
16 | COCc1cc(CN2CCCC(CNC(=O)c3ccc(F)cc3)C2)ccc1OC (stereo not drawn) | inactive
17 | Cc1ccc(Nc2nc(-c3c(C)nc4ncccn34)cs2)cc1 | inactive
18 | Fc1ccccc1-n1cc(-c2ccccc2)[nH]c1=S | inactive
19 | COc1cc(NC(=S)NC(=O)c2cc(C)cc(C)c2)ccc1NC(=O)c1cccs1 | inactive
20 | O=C(C1CCC(Cn2c(=S)[nH]c3ccccc3c2=O)CC1)N1CCN(c2ccccn2)CC1 (stereo not drawn) | inactive
21 | COCCCNc1nc(=S)[nH]c2cc(OC)c(OC)cc12 | inactive
22 | COC(=O)c1c(NC(=O)COc2ncnc3ccccc23)sc(C)c1C | inactive
23 | O=C(Nc1ccccc1N1CCOCC1)c1cccs1 | inactive
24 | Cc1ccc(-c2cc(-c3ccccc3)c(C#N)c(N)n2)o1 | inactive
25 | CCOC(=O)c1[nH]cnc1C(=O)NC(C)C | inactive
26 | Cc1cccc(NC(=S)N2CCn3cccc3C2c2cccnc2)c1 (stereo not drawn) | inactive

Row | SMILES | percent span (inhibition)
27 | Cc1nn(-c2ccc(Cl)cc2)c(Cl)c1/C=C(\C#N)C(N)=O | inactive
28 | Cc1cc(-c2csc(N)n2)c(C)n1C | inactive
29 | Cc1ccccc1OCC(=O)N/N=C/c1ccccn1 | inactive
30 | COc1ccc(/C=C/C(=O)Nc2sc(Cc3ccccc3)c(C)c2C(N)=O)cc1 | inactive
31 | c1ccc2c(N3CCOCC3)nc(N3CCOCC3)nc2c1 | inactive
32 | CN(CCCOc1ccccc1Br)Cc1ccccc1 | inactive
33 | CCOc1cc(/C=N/NC(N)=O)ccc1OCC(=O)Nc1ccc(C)c(C)c1 | inactive
34 | CCN1/C(=C/c2ccc3cc(C)ccc3[n+]2CC)Sc2cc(C)c(C)cc21 | inactive
35 | COc1ccc(NS(=O)(=O)c2cc(NC(=O)c3ccc(C)o3)ccc2N2CCCCC2)cc1 | inactive
36 | Cc1ccnc(Nc2nc(-c3c(C)nc4sccn34)cs2)c1 | inactive
37 | CCCCN(C(=O)CCC(=O)Nc1cc(C)on1)C(C(=O)NC(C)(C)C)c1cccc(OC)c1OC (stereo not drawn) | inactive
38 | O=S1(=O)N=C(N(CCO)/N=C/C=C/c2ccccc2)c2ccccc21 | inactive
39 | Cc1ccc(C(=O)C(C(=O)/C=C/c2ccccc2)=C2SCCCS2)cc1 | inactive
40 | CCN(CC)c1ccc(NC(=O)c2ccccc2)cc1S(=O)(=O)Nc1ccccc1OC | inactive
41 | Cc1cc(C)n(CC(=O)N/N=C/c2cccc([N+](=O)[O-])c2)n1 | inactive
42 | CCSc1ncnc2sc(C)c(C)c12 | inactive
43 | CC1CC2=C(NC(=S)NC2c2ccccc2F)/C(=C/c2ccccc2F)C1 (stereo not drawn) | inactive
44 | Cc1cc(C)cc(-n2c(C)nc3cc(C(=O)O)ccc32)c1 | inactive
45 | Cc1ccc(NC(=O)C/C(N)=N/OC(=O)c2ccccc2)cc1 | inactive
46 | O=C(COc1ccc(Br)cc1CNC1CCCCC1)NCCc1ccccc1 | inactive
47 | CS(=O)(=O)NN1C(=O)c2ccccc2NC1c1ccccc1 (stereo not drawn) | inactive
48 | CCNC(=O)N1c2ccc(OCC)cc2C(C)=CC1(C)C | inactive
49 | Cc1cc(NC(=O)CCCC(=O)NCc2ccccc2)no1 | inactive
50 | O=C(CCc1ccccc1)N1CCN(c2ccccn2)CC1 | inactive

Row | SMILES | percent span (inhibition)
51 | C/C(=N\NC(=O)COc1ccc(C#N)cc1)c1ccccc1OC(F)F | inactive
52 | Nc1ccc(-c2cn3cccnc3n2)cc1 | inactive
53 | O=[N+]([O-])c1cccc(S(=O)(=O)NCC2CCCO2)c1 (stereo not drawn) | inactive
54 | COc1cc(/C=N/Nc2nc3c(c(=O)n(C)c(=O)n3C)n2Cc2ccccc2)ccc1OC(=O)c1ccco1 | inactive
55 | O=C(CSc1nc2ccsc2c(=O)n1Cc1ccc(C(=O)O)cc1)NCC1CCCO1 (stereo not drawn) | inactive
56 | CCCCOc1ccc(Cc2c(Cl)nc(SC)nc2N2CCOCC2)cc1 | inactive
57 | CCc1ccc(NC(=O)CC2NCCNC2=O)cc1 (stereo not drawn) | inactive
58 | CC1=CC(=O)c2ccccc2C1=O | inactive
59 | COc1ccc(CN(C)CC(=O)NC(C)c2ccccc2)c(OC)c1 (stereo not drawn) | inactive
60 | COc1ccc(CC(=O)Nc2ccc(-c3nc4cc(C)ccc4o3)c(O)c2)cc1OC | inactive
61 | Cc1cccc(N2CCN(C(=S)Nc3ccc4nc(N5CCN(C)CC5)cc(C)c4c3)CC2)c1C | inactive
62 | Cc1noc(C)c1CN1C(=O)NC(Cc2ccccc2)(Cc2ccccc2)C1=O | inactive
63 | CN=C(NC1CCCCC1)c1ccc(Cl)cc1 | inactive
64 | COc1ccc(C2(NC(C)=O)CCN(C(=O)c3ccco3)CC2)cc1 | inactive
65 | Cc1ccc(C(=O)N(CCCN(C)C)c2nc3ccc(Cl)cc3s2)cc1C | inactive
66 | Cc1ccc(-c2cc(C(=O)Nc3cc(C(=O)O)ccc3C)c3ccccc3n2)cc1 | inactive
67 | O=C1N/C(=C/c2cccn2-c2ccccc2)C(=O)N1Cc1ccc(F)cc1 | inactive
68 | COCCN=c1scc(-c2ccco2)n1/N=C/c1ccc(O)c(O)c1O | inactive
69 | CCc1cccc(CC)c1NC(=S)N1CCn2cccc2C1c1cccnc1 (stereo not drawn) | inactive
70 | NCC(c1ccccc1)c1c[nH]c2ccccc12 (stereo not drawn) | inactive
71 | O=C(C[n+]1ccc(-c2nnc3n2CCC3)cc1)c1ccc(Cl)cc1 | inactive
72 | CCOC(=O)c1cc2c(=O)n3cccc(C)c3nc2n(Cc2ccco2)c1=NC(=O)c1ccccc1 | inactive
73 | Cc1nc2ncccn2c1-c1csc(Nc2ccc(O)cc2)n1 | inactive
74 | CC(C)Cc1cc(-c2ccco2)c(C#N)c(N)n1 | inactive

Row | SMILES | percent span (inhibition)
75 | CN(/N=C/c1ccncc1)C1=NS(=O)(=O)c2ccccc21 | inactive
76 | COC(=O)c1cc(OC)c(OC)cc1NC(=O)Nc1cccc(C(C)=O)c1 | inactive
77 | Cc1[nH]nc(SCC(=O)NCc2ccc(F)cc2)c1[N+](=O)[O-] | inactive
78 | N=C1C(c2nc3ccccc3s2)=C(O)CN1Cc1ccccc1 | inactive
79 | CCOC(=O)c1c(NC(=O)c2ccccc2N(C)S(=O)(=O)c2ccccc2)sc2c1CCCC2 | inactive
80 | COc1cc(/C=C2\SC(=S)NC2=O)ccc1OS(=O)(=O)c1ccccc1 | inactive
81 | CC(C)c1ccc(C2CC(c3ccc(Br)cc3)=NN2C(N)=S)cc1 (stereo not drawn) | inactive
82 | OCCC1CN(Cc2ccc3ncccc3c2)CCN1Cc1ccccc1 (stereo not drawn) | inactive
83 | C/C(=N\NC(=O)COc1ccc(C(C)(C)C)cc1)c1ccc2c(c1)OCCO2 | inactive
84 | Cc1nc(=S)c2ccccc2[nH]1 | inactive
85 | CSc1n[nH]c2nc3c(c(=O)n12)C1(CCCC1)Cc1ccccc1-3 | inactive
86 | CCc1ccc(/C=C/C(=O)c2cc(Br)ccc(=O)c2O)cc1 | inactive
87 | CC(C)CNC(=O)c1cccc(NC(=O)c2ccc(Cl)c([N+](=O)[O-])c2)c1 | inactive
88 | COC(=O)C1C2c3ccccc3OC1(C)N=c1s/c(=C/c3cnn(C)c3C)c(=O)n12 (stereo not drawn) | inactive
89 | O=c1[nH]c(SCc2nc3ccccc3c(=O)n2-c2ccccc2C(F)(F)F)nc2ccccc12 | inactive
90 | Cc1ccccc1-n1c(SCc2cccc(F)c2)nc2[nH]ncc2c1=O | inactive
91 | CNC(=O)CC1C(=O)N(Cc2ccccc2)C(=S)N1NC(=O)c1cccc(F)c1 (stereo not drawn) | inactive
92 | COC(=O)c1cccc(-n2c(C)cc(C=O)c2C)c1 | inactive
93 | O=C(Nc1ccncc1)c1cc2ccccc2o1 | inactive
94 | CC1=NN(c2ccc(C)cc2)C(=O)/C1=C\c1ccc(Br)s1 | inactive
95 | COc1ccc(OC)c2sc(NC(=O)c3ccc(Br)s3)nc12 | inactive
96 | CS(=O)(=O)NN1C(=O)c2ccccc2NC1c1cccs1 (stereo not drawn) | inactive
97 | COc1ccc(NC(=O)c2cc(-c3ccc(C)o3)nc3ccccc23)cc1OC | inactive
98 | C#CCOCCOCCOCCNc1nc(N2CCN(C(=O)[C@H](CCCCN)n3cc(CCCC)nn3)CC2)nc(N2CCN(C(=O)[C@H](Cc3ccc(O)cc3)n3cc(CCO)nn3)CC2)n1 | inactive
